Key:
[1] = UV absorption (UV-VIS spectra in 2-propanol, 1 mg/100 ml); type: physicochemical; set-up: UV absorbance at λmax (1 mg/100 ml): unit not given here; conditions: for UV-VIS λmax / UV absorbance at λmax (1 mg/100 ml): 1 mg/100 ml; for UV absorbance at λmax (1 mg/100 ml): value in brackets after λmax in the synthesis example; for UVB (280-320 nm) max. abs / UVB max. at λ [nm] / UVA (400-320 nm) max. abs / UVA max. at λ [nm]: solvent 2-Propanol, c 1 mg/100 ml
Experimental: FIG. 1: UV absorption spectra of 1-hydroxy-3-[(E)-3-(4-methoxyphenyl)-2-propenoyloxy]-2-oxopropane (Example 1a) and 1-hydroxy-3-(2-cyano-3,3-diphenylacryloyloxy)-2-oxopropane (Example 1b) (in each case measured in 2-propanol at a concentration of 1 mg/100 ml)
FIG. 2: UV absorption spectra of 3-[4-(3-hydroxy-2-oxopropoxymethyl)benzylidene]-4,7,7-trimethylbicyclo[2.2.1]heptan-2-one (Example 9), N-(2,3-dihydroxypropyl)-(E)-3-(4-methoxyphenyl)acrylamide (Example 10a) and N-(2,3-dihydroxypropyl)-N-methyl-(E)-3-(4-methoxyphenyl)acrylamide (Example 10b) (in each case measured in 2-propanol at a concentration of 1 mg/100 ml).

Row | SMILES | UVB (280-320 nm) max. abs [1] | UVB max. at λ [nm] [1] [nm] | other results
1 | CN(C)c1ccc(C(=O)OCC(O)CO)cc1 (stereo not drawn) [Example 5, 2,3-Dihydroxypropyl 4-dimethylaminobenzoate] |  |  | UV-VIS λmax [1]: 310.0 nm; UV absorbance at λmax (1 mg/100 ml) [1]: 1.01
2 | COC(CO)(COCc1ccc(/C=C2\C(=O)C3CCC2(C)C3(C)C)cc1)OC (stereo not drawn) [3-[4-(3-hydroxy-2,2-dimethoxypropoxymethyl)benzylidene]-4,7,7-trimethylbicyclo[2.2.1]heptan-2-one] | 0.615 | 298.0 | 
3 | O=C(c1ccccc1)c1ccc(OCC(O)CO)cc1O (stereo not drawn) | 0.537 | 287.9 | UVA (400-320 nm) max. abs [1]: 0.363; UVA max. at λ [nm] [1]: 327.5 nm
4 | N#CC(C(=O)OCC(=O)CO)=C(c1ccccc1)c1ccccc1 [Example 1b, 1-Hydroxy-3-(2-cyano-3,3-diphenylacryloyloxy)-2-oxopropane] |  |  | UV-VIS λmax [1]: 303.0 nm; UV absorbance at λmax (1 mg/100 ml) [1]: 0.375; melting point: 204 °C (dec.)
5 | CCCCC(CC)COc1ccc(/C=C/C(=O)NCC(=O)CO)cc1 (stereo not drawn) [drawing 90, N-(3-hydroxy-2-oxopropyl)-(E)-3-[4-(2-ethylhexyloxyphenyl)]acrylamide] | 0.706 | 307.5 | 
6 | COc1ccc(/C=C/C(=O)N(C)CC(O)CO)cc1 (stereo not drawn) [drawing 96] | 0.715 | 292 | 
7 | CC12CCC(C(=O)/C1=C\c1ccc(CNCC(O)CO)cc1)C2(C)C (stereo not drawn) | 0.692 | 298.0 | 
8 | CN(C)c1ccc(C(=O)OCC(O)CO[Si](C)(C)C(C)(C)C)cc1 (stereo not drawn) [Example 6, 3-(tert-Butyldimethylsilyloxy)-2-hydroxypropyl 4-dimethylaminobenzoate] |  |  | UV-VIS λmax [1]: 310.0 nm; UV absorbance at λmax (1 mg/100 ml) [1]: 1.01
9 | N#CC(C(=O)OCC(=O)COC(=O)C(C#N)=C(c1ccccc1)c1ccccc1)=C(c1ccccc1)c1ccccc1 [drawing 78, 1,3-Bis-(2-cyano-3,3-diphenylacryloyloxy)-2-oxopropane] | 0.031 | 304.0 | 
10 | CN(Cc1ccc(/C=C2\C(=O)C3CCC2(C)C3(C)C)cc1)CC(O)CO (stereo not drawn) [3-(4-{[(2,3-Dihydroxypropyl)methylamino]methyl}benzylidene)-4,7,7-trimethylbicyclo[2.2.1]heptan-2-one] | 0.711 | 296 | 
11 | COc1ccc(/C=C/C(=O)OCC(=O)COC(=O)/C=C/c2ccc(OC)cc2)cc1 [drawing 73] | 0.107 | 300.67 | 
12 | COc1ccc(/C=C/C(=O)NCC(O)CO)cc1 (stereo not drawn) [drawing 94] | 0.914 | 289 | 
13 | N#CC(C(=O)OCC(=O)CO)=C(c1ccccc1)c1ccccc1 [drawing 77, 1-Hydroxy-3-(2-cyano-3,3-diphenylacryloyloxy)-2-oxopropane] | 0.375 | 303.0 | 
14 | CCCCC(CC)COc1ccc(/C=C/C(=O)NCC(=O)CO)cc1 (stereo not drawn) [Example 21, N-(3-hydroxy-2-oxopropyl)-(E)-3-[4-(2-ethylhexyloxyphenyl)]acrylamide] |  |  | UV-VIS λmax [1]: 307.5 nm; UV absorbance at λmax (1 mg/100 ml) [1]: 0.706; melting point: 155 to 157 °C
15 | CN(C)c1ccc(C(=O)NCC(O)CO[Si](C)(C)C(C)(C)C)cc1 (stereo not drawn) [drawing 84, N-[3-(tert-butyldimethylsilyloxy)-2-hydroxypropyl]-4-dimethylaminobenzamide] | 0.64 | 301.0 | 
16 | CN(C)c1ccc(C(=O)NCC(=O)CO)cc1 [drawing 85, N-(3-hydroxy-2-oxopropyl)-4-dimethylaminobenzamide] | 0.575 | 298.0 | 
17 | CC12CCC(C(=O)/C1=C\c1ccc(COCC(=O)CO)cc1)C2(C)C (stereo not drawn) [3-[4-(3-hydroxy-2-oxopropoxymethyl)benzylidene]-4,7,7-trimethylbicyclo[2.2.1]heptan-2-one] | 0.874 | 296 | 

Row | SMILES | UVB (280-320 nm) max. abs [1] | UVB max. at λ [nm] [1] [nm] | other results
18 | CC1(C)OCC(COc2ccc(C(=O)c3ccccc3)c(O)c2)O1 (stereo not drawn) | 0.473 | 286.1 | UVA (400-320 nm) max. abs [1]: 0.312; UVA max. at λ [nm] [1]: 328.3 nm
19 | CN(C)c1ccc(C(=O)NCC(O)CO)cc1 (stereo not drawn) [drawing 82] | 0.947 | 301.0 | 
20 | CCCCC(CC)COc1ccc(/C=C/C(=O)NCC(O)CO)cc1 (stereo not drawn) [Example 10c, N-(2,3-dihydroxypropyl)-(E)-[4-(2-ethylhexyloxyphenyl)]acrylamide] |  |  | UV-VIS λmax [1]: 307.0 nm; UV absorbance at λmax (1 mg/100 ml) [1]: 0.688
21 | COc1ccc(/C=C/C(=O)OCC(O)CO)cc1 (stereo not drawn) | 0.881 | 302.0 | 
22 | CN(C)c1ccc(C(=O)NCC(=O)CO)cc1 [Example 22, N-(3-hydroxy-2-oxopropyl)-4-dimethylaminobenzamide] |  |  | UV-VIS λmax [1]: 298.0 nm; UV absorbance at λmax (1 mg/100 ml) [1]: 0.575
23 | CN(C)c1ccc(C(=O)NCC(=O)CO[Si](C)(C)C(C)(C)C)cc1 [Example 19, N-[3-(tert-butyldimethylsilyloxy)-2-oxopropyl]-4-dimethylaminobenzamide] |  |  | UV-VIS λmax [1]: 312.0 nm; UV absorbance at λmax (1 mg/100 ml) [1]: 0.713
24 | CN(Cc1ccc(/C=C2\C(=O)C3CCC2(C)C3(C)C)cc1)CC(O)CO[Si](C)(C)C(C)(C)C (stereo not drawn) [3-[4-({[3-(tert-butyldimethylsilyloxy)-2-hydroxypropyl]-methylamino}methyl)benzylidene]-4,7,7-trimethylbicyclo[2.2.1]heptan-2-one] | 0.545 | 297 | 
25 | COc1ccc(/C=C/C(=O)OCC2COC(C)(C)O2)cc1 (stereo not drawn) | 0.796 | 306.0 | 
26 | COc1ccc(/C=C/C(=O)OCC(=O)CO)cc1 [drawing 74] | 0.893 | 311.33 | 
27 | CN(C)c1ccc(C(=O)NCC(=O)CO[Si](C)(C)C(C)(C)C)cc1 [drawing 86, N-[3-(tert-butyldimethylsilyloxy)-2-oxopropyl]-4-dimethylaminobenzamide] | 0.713 | 312.0 | 
28 | CN(C)c1ccc(C(=O)OCC2COC(C)(C)O2)cc1 (stereo not drawn) [Example 4, 4-(4-Dimethylaminophenylcarbonyloxymethyl)-2,2-dimethyl-1,3-dioxolane] |  |  | UV-VIS λmax [1]: 310.0 nm; UV absorbance at λmax (1 mg/100 ml) [1]: 0.86
29 | COc1ccc(/C=C/C(=O)NCC(=O)CO)cc1 [drawing 81, N-(3-hydroxy-2-oxopropyl)-(E)-3-(4-methoxyphenyl)acrylamide] | 0.941 | 294.0 | 
30 | CN(C)c1ccc(C(=O)OCC(=O)CO)cc1 [drawing 83, 3-Hydroxy-2-oxopropyl 4-dimethylaminobenzoate] | 1.213 | 311.0 | 
31 | COc1ccc(/C=C/C(=O)NCC(O)CO[Si](C)(C)C(C)(C)C)cc1 (stereo not drawn) [drawing 93] | 0.694 | 289 | 
32 | COc1ccc(/C=C/C(=O)NCC(O)CO)cc1 (stereo not drawn) [drawing 75] | 0.936 | 292.00 | 
33 | CCCCC(CC)COc1ccc(/C=C/C(=O)NCC(O)CO)cc1 (stereo not drawn) [drawing 89, N-(2,3-dihydroxypropyl)-(E)-[4-(2-ethylhexyloxyphenyl)]acrylamide] | 0.688 | 307.0 | 

Source: patent US7863478B2, “UV filters” (Merck Patent GmbH, priority 2004, dated 2011)
